Results taken from US20040229810A1, “Gastrin compositions and formulations, and methods of use and preparation” (priority 2002, published 2004).
Where two headings read alike, the source gives them in different places. Each block holds one molecule with its values, some of them ahead of it. Where a SMILES comes first, the peptide text is derived from it. Where no end group is shown, it is not given here. [ ]: non-standard residue; d: D form. pGlu = O=C1CC[C@@H](C(=O)O)N1

Assays:
in vivo = settings: male, cynomolgus monkey, iv
[1] = test system: NOD mice with recent onset diabetes; test: Modified vs unmodified gastrin in combination with GLP-1 in preventing diabetes progression in NOD mice with recent onset diabetes; format: in vivo; settings: in combination with GLP-1 (100 μg/kg/day); gastrin compound 3 μg/kg/day gastrin equivalent i.p. daily for 14 days; compared to GLP-1 with native gastrin (Compound B)
Excerpt: In this example, the effect of treatment by a combination of GLP-1 and unmodified gastrin and GLP-1 and modified gastrin compounds/conjugates were examined in NOD mice with recent onset diabetes, to determine whether administration of both GLP-1 and gastrin would prevent severe hyperglycemia as well as increase pancreatic insulin content in NOD mice with recent-onset diabetes. The GLP-1 used was GLP-1 which is the biologically active fragment of human/mouse GLP-1 (having residues at positions 7-36 compared to the precursor from which the fragment is processed; obtained from Bachem H6795). […]
Non-obese diabetic (NOD) female mice, ages 12-14 weeks, were monitored for development of onset of diabetes (fasting blood glucose >8.0 to 15 mmol/l), and within 48 hours after onset of symptoms, four groups of mice were each treated as follows: one group was treated with vehicle only; and the other group was administered 100 μg/kg/day of GLP-1, and the remaining groups were treated with combination of GLP-1 (100 μg/kg/day) and gastrin compound (3 μg/kg/day gastrin equivalent), each treatment administered via the intraperitoneal route daily.
Therapy was administered for 14 days. Animals were monitored weekly for fasting blood glucose (FBG) levels. FBG levels were measured at about 12 hours after food had been withdrawn, and 24 hours after the last peptide or vehicle injection. […]

[2] = cited from earlier work

- AUC (in vivo; 3 ug/kg): 4.18 ng·h/mL
- Cmax (in vivo; 3 ug/kg): 27 ng/mL
- Tmax (in vivo; 3 ug/kg): 2 min
- half-life (in vivo; 3 ug/kg, t ½): 5 min
- AUC (in vivo; 30 ug/kg): 42.1 ng·h/mL
- Cmax (in vivo; 30 ug/kg): 268 ng/mL
- Tmax (in vivo; 30 ug/kg): 1 min
- half-life (in vivo; 30 ug/kg, plasma t1/2): 4 to 5 min
- half-life (in vivo; 30 ug/kg, t ½): 5 min
- AUC (in vivo; cynomolgus, 10 ug/kg): 15.7 ng·h/mL
- Cmax (in vivo; cynomolgus, 10 ug/kg): 127 ng/mL
- Tmax (in vivo; cynomolgus, 10 ug/kg): 1 min
- half-life (in vivo; cynomolgus, 10 ug/kg, t ½): 4 min
Molecule: CC(C)C[C@H](NC(=O)[C@H](Cc1c[nH]c2ccccc12)NC(=O)CNC(=O)[C@H](Cc1ccc(O)cc1)NC(=O)[C@H](C)NC(=O)[C@H](CCC(=O)O)NC(=O)[C@H](CCC(=O)O)NC(=O)[C@H](CCC(=O)O)NC(=O)[C@H](CCC(=O)O)NC(=O)[C@H](CCC(=O)O)NC(=O)[C@H](CC(C)C)NC(=O)[C@H](Cc1c[nH]c2ccccc12)NC(=O)[C@@H]1CCCN1C(=O)CNC(=O)[C@@H]1CCC(=O)N1)C(=O)N[C@@H](CC(=O)O)C(=O)N[C@@H](Cc1ccccc1)C(N)=O [Compound B] ([pGlu]GPWLEEEEEAYGWLDF-NH2)

Molecule: Compound E: gastrin peptide residues 2-17 of SEQ ID NO: 4 with N-terminal Cys residue, no linker (CGPWLEEEEEAYGWLDF; not fully specified (C-terminus); ends and bridges not checked)
- reducing blood glucose levels in diabetic animals [1]: more effecting in reducing blood glucose levels

Molecule: gastrin-34 ([pGlu]LGPQGPPHLVADPSKKQGPWLEEEEEAYGWMDF-NH2; ends and bridges not checked; UniProt P01350 59-92, looked up)
- circulating half-life ([2]; background statement): about 35 mins

Molecule: Gastrin-17
- circulating half-life ([2]; in vivo): 5 to 9 min

Molecule: Compound Q: human serum albumin conjugate of N-terminal Cys gastrin peptide residues 2-17 of SEQ ID NO: 4 with (GA)5 linker (GPWLEEEEEAYGWLDF; not fully specified (N-terminus, C-terminus); ends and bridges not checked; also: human serum albumin conjugate)
- reducing blood glucose levels in diabetic animals [1]: more effecting in reducing blood glucose levels
